Results from US20230183169A1, “AROMATIC COMPOUND, PREPARATION METHOD THEREFOR AND USE THEREOF IN DRUG” (SICHUAN ACADEMY OF MEDICAL SCIENCES - SICHUAN PROVINCIAL …, priority 2020, published 2023).
Where a name gives a salt, the structure may show the parent alone.

How the values were obtained:
[1] = test system: male SD rats; test: Subcutaneous infiltration anesthesia in rats (acupuncture stimulation of back skin); type: in vivo, rat; details: for Duration of local anesthesia: 0.4 mL subcutaneous
Procedure: The compounds of the examples were dissolved in water for injection to a concentration of 0.2-0.5 g/100 mL (0.2-0.5%), or mixed with commercially-available clinically-common local anesthetic drugs to prepare a mixed solution with a specific proportion, and the 0.75% levobupivacaine was used as the positive control compound. The experimental method was as follows: male SD rats weighing 180-300 g were shaved off back hair 1 day before the experiment, and a circular skin area with a diameter of 4 cm was exposed. 0.4 mL of the drug solution was subcutaneously injected to the exposed circular center on the back using a 1 mL syringe to form a skin mound. After 1 minute, the first measurement was performed. Each of 8 random parts around the center of the injection site was stimulated once by acupuncture of 15 g force using a 26G needle (the stimulation site was no more than 1 cm away from the injection center). […] If there was no such behavior, it was considered that the local anesthetic effect existed. […] Except for the first measurement, the measurement was performed every 2 hours within 12 hours after the administration, and every 6 hours after 12 hours after the administration. 8 rats were used for each drug for the experiment.

[2] = test system: left sciatic nerve of rats; test: Sciatic nerve blocking experiment in rats (Von Frey filaments 60 g); type: in vivo, rat
Procedure: The compounds of the examples were dissolved in water for injection to a concentration of 0.5-2.0 g/100 mL (0.5%-2%), or mixed with commercially-available clinically-common local anesthetic drugs to prepare a mixed solution with a specific proportion, and the 0.75% levobupivacaine was used as the positive control compound. The experimental method was as follows: male SD rats weighing 180-300 g were anesthetized with isoflurane, 0.2 mL of the drug-containing solution was injected near the left sciatic nerve of rats, and 8 rats were used for each drug for the experiment. After the rats woke up, the first measurement was performed, and then the measurement was performed every 2 hours. If there was still an anesthetic effect after six measurements, the measurement was performed every 6 hours until the anesthetic effect disappeared. The method for judging the existence of anesthetic effect was as follows. The skin of the sole and lateral surface of the hindlimb of the rat on the side injected with the drug was stimulated using Von Frey filaments (60 g). […] If there was no such behavior, it was considered that the local anesthetic effect existed.

[3] = test system: rats; test: Mortality rate after injection of drugs through tail vein; type: in vivo, rat; details: 0.4 mL through tail vein, 10 rats
Procedure: 0.2% aqueous solution of the compounds of the present invention and 0.75% levobupivacaine solution were injected into the rats through tail vein in 0.4 mL, and the mortality rate was observed. Each drug was injected into 10 rats (half male and half female, weighing 290-310).

[4] = background, literature; cited from earlier work
[5] = 0.15 + 0.15% tetracaine hydrochloride
[6] = 0.5%, 0.2 mL near left sciatic nerve
[7] = 0.5 + 0.15% tetracaine hydrochloride, 0.2 mL near sciatic nerve
[8] = 1.0%, 0.2 mL near left sciatic nerve
[9] = 2.0%, 0.2 mL near left sciatic nerve
[10] = 0.75%, 0.2 mL near left sciatic nerve
[11] = 0.15 + 0.35% bupivacaine hydrochloride
[12] = 0.5 + 0.35% bupivacaine hydrochloride, 0.2 mL near sciatic nerve
[13] = 0.15 + 0.35% lidocaine hydrochloride
[14] = 0.5 + 0.35% lidocaine hydrochloride, 0.2 mL near sciatic nerve

SMILES | Duration of local anesthesia ([1]; 0.2%, rat back) | Duration of local anesthesia ([1]; 0.5%, rat back) | Duration of local anesthesia [2, 6] | Duration of local anesthesia [2, 8] | Duration of local anesthesia [2, 9] | Mortality rate % ([3]; 0.2% aqueous solution) | also measured
CCN(CCCCCOc1cc(C)c(NC(=O)C[N+](CC)(CC)CC)c(C)c1)CC(=O)Nc1c(C)cccc1C [Compound 45] | 24 to 36 h | 42 to 60 h | 18 to 24 h | 30 to 42 h | 96 to 120 h | 0% | Duration of local anesthesia [1, 5]: 36 to 48 h; Duration of local anesthesia [2, 7]: 36 to 42 h
CCCCN1CCCCC1C(=O)Nc1c(C)cccc1C (stereo not drawn) [bupivacaine, reference compound] |  |  |  |  |  |  | Duration of local anesthesia ([1]; 0.75%, rat back): 4 to 6 h; Duration of local anesthesia [2, 10]: 2 to 6 h
C=CC[N+]1(CC(=O)Nc2c(C)cc(OC(=O)CCC)cc2C)CCCCC1 [Compound 26] | 24 to 36 h | 54 to 66 h | 24 to 30 h | 48 to 60 h | 96 to 160 h | 0% | Duration of local anesthesia ([1]; 0.15 + 0.35% levobupivacaine hydrochloride): 42 to 54 h; Duration of local anesthesia ([2]; 0.5 + 0.35% levobupivacaine hydrochloride, 0.2 mL near sciatic nerve): 36 to 48 h
CCN(CC)CC(=O)Nc1c(C)cccc1C [lidocaine] |  |  |  |  |  |  | Duration of local anesthesia [4]: 2 h
CC[N+](CC)(CC)CC(=O)Nc1c(C)cc(OC(=O)CCCCCCCN2CCCCC2C(=O)Nc2c(C)cccc2C)cc1C (stereo not drawn) [Compound 50] | 18 to 30 h | 24 to 48 h | 24 to 30 h | 36 to 48 h | 96 to 120 h | 0% | Duration of local anesthesia [1, 5]: 42 to 54 h; Duration of local anesthesia [2, 7]: 36 to 60 h
CC[N+](CC)(CC)CC(=O)Nc1c(C)cc(OC(C)C)cc1C [Compound 15] | 24 to 30 h | 42 to 54 h | 12 to 18 h | 24 to 36 h | 120 to 144 h | 0% | Duration of local anesthesia [1, 11]: 36 to 42 h; Duration of local anesthesia [2, 12]: 30 to 42 h
CC[N+](CC)(CC)CC(=O)Nc1c(C)cc(OC(=O)OCCCN2CCCCC2C(=O)Nc2c(C)cccc2C)cc1C (stereo not drawn) [Compound 48] | 36 to 54 h | 60 to 78 h | 24 to 36 h | 54 to 72 h | 120 to 160 h | 0% | Duration of local anesthesia [1, 5]: 66 to 72 h; Duration of local anesthesia [2, 7]: 60 to 72 h
CC[N+](CC)(CCO)CC(=O)Nc1c(C)cc(OC(=O)CCCc2ccc(Cl)cc2)cc1C [Compound 31] | 24 to 30 h | 36 to 54 h | 12 to 18 h | 24 to 30 h | 72 to 120 h | 0% | Duration of local anesthesia [1, 13]: 36 to 42 h; Duration of local anesthesia [2, 14]: 24 to 42 h
CCCCN1CCCC[C@H]1C(=O)Nc1c(C)cccc1C [Levobupivacaine hydrochloride, reference compound] |  |  |  |  |  |  | Duration of local anesthesia ([1]; 0.75%, rat back, hydrochloride): 4 to 6 h; Duration of local anesthesia ([1]; 0.75%, rat back, listed as levobupivacaine, hydrochloride): 4 to 6 h; Duration of local anesthesia [2, 10]: 2 to 6 h; Duration of motor block ([2]; 0.75%, compared with sensory block): basically the same as that of the sensory block; Block of motor function of the hindlimb ([2]; 0.75%, side injected with the drug): significantly blocked the motor function; Mortality rate % ([3]; 0.75% solution, hydrochloride): 70%; Mortality rate % ([3]; 0.75% solution, listed as levobupivaca, hydrochloride): death of most animals; Mortality rate % ([3]; 0.75% solution, listed as levobupivacaine, hydrochloride): 70%
CC[N+](CC)(CC)CC(=O)Nc1c(C)cc(N)cc1C [Compound 7] | 2 to 4 h | 2 to 4 h | <2 h | <2 h | 2 to 4 h |  | Duration of local anesthesia [1, 11]: 4 to 6 h; Local anesthetic effect at the first measurement ([1]; injections of 0.2% and 0.5%, first measurement 1 minute after subcutaneous injection): not effective; Duration of local anesthesia [2, 12]: 2 to 4 h
CCCCCOC(=O)Oc1cc(C)c(NC(=O)C[N+](CC)(CC)CC)c(C)c1 [Compound 27] | 18 to 30 h | 36 to 48 h | 12 to 24 h | 30 to 42 h | 96 to 144 h | 0% | Duration of local anesthesia ([1]; 0.15 + 0.5% lidocaine hydrochloride): 36 to 60 h; Duration of local anesthesia ([2]; 0.5 + 0.5% lidocaine hydrochloride, 0.2 mL near sciatic nerve): 36 to 66 h
CCCCCN(C)CC(=O)Oc1cc(C)c(NC(=O)C[N+](CC)(CC)CC)c(C)c1 [Compound 28] | 36 to 48 h | 54 to 72 h | 30 to 36 h | 48 to 60 h | 120 to 144 h | 0% | Duration of local anesthesia [1, 13]: 54 to 66 h; Duration of local anesthesia [2, 14]: 48 to 54 h
CC[N+](CC)(CC)CC(=O)Nc1c(C)cc(OC(C)=O)cc1C [Compound 3] | 8 to 14 h | 12 to 18 h | 10 to 12 h | 18 to 30 h | 54 to 96 h | 0% | Duration of local anesthesia [1, 11]: 18 to 24 h; Duration of local anesthesia [2, 12]: 24 to 36 h
CCCCCCOc1cc(C)c(NC(=O)C[N+](CC)(CC)CC)c(C)c1 [Compound 17] | 36 to 48 h | 54 to 60 h | 24 to 42 h | 42 to 66 h | 96 to 144 h | 0% | Duration of local anesthesia [1, 11]: 54 to 72 h; Duration of local anesthesia [2, 12]: 48 to 66 h
CC[N+](CC)(CC)CC(=O)Nc1c(C)cc(O)cc1C [Compound 1] | 6 to 8 h | 10 to 12 h | 4 to 10 h | 12 to 18 h | 30 to 48 h | 0% | Duration of local anesthesia [1, 11]: 24 to 30 h; Duration of local anesthesia [2, 12]: 18 to 30 h
CC[N+](CC)(CCO)CC(=O)Nc1c(C)cc(OCCCCN2CCCCC2C(=O)Nc2c(C)cccc2C)cc1C (stereo not drawn) [Compound 53] | 24 to 30 h | 48 to 54 h | 30 to 36 h | 42 to 54 h | 72 to 84 h | 0% | Duration of local anesthesia [1, 5]: 36 to 48 h; Duration of local anesthesia [2, 7]: 42 to 66 h
CCCC(=O)Oc1cc(C)c(NC(=O)C2CCCC[N+]2(C)CCC)c(C)c1 (stereo not drawn) [Compound 33] | 36 to 54 h | 60 to 72 h | 24 to 30 h | 48 to 66 h | 120 to 144 h | 0% | Duration of local anesthesia [1, 5]: 66 to 84 h; Duration of local anesthesia [2, 7]: 60 to 84 h
